Source: article PMC11602940, “Assessing multi-target antiviral and antioxidant activities of natural compounds against SARS-CoV-2: an integrated in vitro and in silico study” (Bioresources and Bioprocessing, 2024)
In brackets after ≈: the same amount, converted by molar mass.

How the values were obtained:
[1] = Ferric reducing antioxidant power assay (FRAP)
Protocol: The FRAP assay is based on the reduction of ferric ions (Fe^3⁺) to ferrous ions (Fe^2⁺) in the presence of antioxidants. The reduced Fe^2⁺ forms a blue-colored complex with 2,4,6-tripyridyl-s-triazine (TPTZ), and the intensity of the color is directly proportional to the reducing power of the sample, which can be quantified spectrophotometrically. For the assay, an acetate buffer (300 mM, pH 3.6) is prepared by dissolving […] in 1 L of distilled water. The TPTZ solution (10 mM) is dissolved in 40 mM HCl, and the ferric chloride solution (FeCl₃, 20 mM) is prepared separately. The FRAP reagent is freshly prepared before the assay by mixing 10 parts acetate buffer, 1 part TPTZ solution, and 1 part FeCl₃ solution. This reagent is kept at 37 °C to ensure its stability during the reaction. For the sample preparation, different concentrations of samples were dissolved in methanol. Trolox, a well-known antioxidant, is used as the positive control and prepared at the same concentrations for comparison. To conduct the assay, 100 µL of each sample or Trolox solution is mixed with 3 mL of freshly prepared FRAP reagent in a 96-well plate or test tube. The mixtures are incubated at 37 °C for 30 min, allowing the antioxidants in the samples to reduce the Fe^3⁺ ions to Fe^2⁺. After incubation, the absorbance of the resulting blue-colored complex is measured at 593 nm using a UV–visible spectrophotometer. The FRAP value of each sample is calculated by comparing the absorbance to a standard curve generated using known concentrations of ferrous sulfate (FeSO₄). The antioxidant capacity is expressed as µmol Fe^2⁺ equivalents/g of the sample. The experiment included three separate readings for every measurement.

[2] = Cupric ion reducing antioxidant capacity assay (CUPRAC)
Protocol: The CUPRAC assay evaluates the ability of antioxidants to reduce cupric ions (Cu^2⁺) to cuprous ions (Cu^1⁺), forming a stable colored complex with neocuproine. For the assay, a CUPRAC reagent is prepared by mixing 10 mL of 10 mM copper(II) chloride (CuCl₂), 10 mL of 7.5 mM neocuproine, and 10 mL of ammonium acetate buffer (pH 7.0). […] Trolox is again used as the positive control and prepared at the same concentrations. For the assay, 1 mL of each sample concentration or Trolox is mixed with 1 mL of CUPRAC reagent in a 96-well plate or test tube. The reaction mixture is incubated at room temperature for 30 min to allow a complete reduction of Cu^2⁺ to Cu^1⁺. The absorbance is then measured at 450 nm using a UV–visible spectrophotometer. The antioxidant capacity is determined by comparing the absorbance to a Trolox standard curve, and the results were expressed as µmol Trolox equivalents/g of the sample. All measurements are performed in triplicate.

[3] = ABTS radical cation scavenging activity
Protocol: The activity of scavenging ABTS radical cation was assessed across various concentrations, and the outcomes were juxtaposed with those obtained from standard materials. The selected compounds and vitamin C were evaluated at corresponding concentrations, following the methodology outlined in a prior study (AlBalawi et al. [2023]). Using the absorbance reading at 734 nm, the percentage of ABTS radical cation scavenging activity was computed using the formula: %ABTSradicalcationscavengingactivity=1-AsampleAsampleAcontrolAcontrol×100TopofForm

Vero CCL-81 cells [4] = experiment: MTT cytotoxicity assay; type: cell-based; details: 48 h
Protocol: An MTT (3-[4,5-dimethylthiazol-2-yl]-2,5 diphenyl tetrazolium bromide) assay was used to measure the effects of the selected compounds on Vero CCL-81 cells to ascertain the cytotoxicity of the compounds (Njeru and Muema [2021]; El-Shehawy et al. [2023]). To summarize, Vero CCL-81 cells were seeded in 96-well plates with 1.0 × 10^4 cells per well in DMEM supplemented with 2% FBS at a density of 1.0 × 10^4 cells per well. In the following step, the plates were incubated at 37 °C with 5% CO2 for 24 h before they were collected. A dilution of 150 µL of compounds was added in quadruplicate to each well after the incubation, and the wells were kept at 37 °C with 5% CO2 for 48 h. After the PBS was added to each well, a final step was to add 30 µL of MTT, remove the supernatants, and wash with PBS twice. A 2 h incubation period was conducted after MTT addition, at 37 °C, using 5% CO2, and it was protected from light for 2 h. A 100 µL/well DMSO solution was added to the wells to dissolve the formazan crystals (El-Sewedy et al. [2023]). Positive controls (cells treated with a known cytotoxic agent) and negative controls (untreated cells) were included in each experiment and were in triplicate.

Vero CCL-81 cells [5] = experiment: Dose-dependent assay (Chou-Talalay, CompuSyn) from MTT data; type: cell-based
Protocol: The compounds were analyzed using MTT assay data. By applying the Chou-Talalay method, the dose-dependent effect was calculated (Elwakeel et al. [2019]). This calculation was performed using CompuSyn software. The dose–effect curves were created for both single treatments, and the fraction affected (Fa) values were determined for each dose and corresponding effect as previously reported (El-Sewedy et al. [2023]). The dose-dependent assay was carried out in triplicate to guarantee reproducibility.

SARS-CoV-2 = type: cell-based

For `Cc1c(C)c2c(c(C)c1O)CCC(C)(C(=O)O)O2` (stereo not shown) [Trolox, reference compound], the “FRAP ± SD” value ([1]; 1000 µg/mL) was 1200.00 ± 20.00 μmol Fe^2⁺ eq/g, the “CUPRAC ± SD” value ([2]; 1000 µg/mL) was 1100.00 ± 17.50 μmol Trolox eq/g and the “ABTS ± SD” value ([3]; 1000 µg/mL) was 1300.00 ± 22.00 μmol Trolox eq/g.

In the case of `COc1cc(/C=C/C(=O)CC(=O)/C=C/c2ccc(O)c(OC)c2)ccc1O` [Curcumin], the IC50 (Vero CCL-81 cells [4]) is reported as 83.2 µg/mL (≈ 226 µM), the “Dose at fraction affected (Fa)” value (Vero CCL-81 cells [5]; Fa 0.5, 48 h treatment) is reported as 9.421 and the “Dose at fraction affected (Fa)” value (Vero CCL-81 cells [5]; Fa 0.75, 48 h treatment) is reported as 20.7718. For the same compound, the “Dose at fraction affected (Fa)” value (Vero CCL-81 cells [5]; Fa 0.9, 48 h treatment) was 45.7973, the “Dose at fraction affected (Fa)” value (Vero CCL-81 cells [5]; Fa 0.95, 48 h treatment) was 78.4112 and the “Dose at fraction affected (Fa)” value (Vero CCL-81 cells [5]; Fa 0.97, 48 h treatment) was 114.960. For the same compound, the “effect on SARS-CoV-2 viral titer” value (SARS-CoV-2) was “reduced viral titer”.

For `O=c1c(O)c(-c2ccc(O)c(O)c2)oc2cc(O)cc(O)c12` [Quercetin], the IC50 (Vero CCL-81 cells [4]) was 55.2 µg/mL (≈ 183 µM), the “Dose at fraction affected (Fa)” value (Vero CCL-81 cells [5]; Fa 0.5, 48 h treatment) was 12.0260 and the “Dose at fraction affected (Fa)” value (Vero CCL-81 cells [5]; Fa 0.75, 48 h treatment) was 46.3852. For the same compound, the “Dose at fraction affected (Fa)” value (Vero CCL-81 cells [5]; Fa 0.9, 48 h treatment) was 178.911, the “Dose at fraction affected (Fa)” value (Vero CCL-81 cells [5]; Fa 0.95, 48 h treatment) was 448.103 and the “Dose at fraction affected (Fa)” value (Vero CCL-81 cells [5]; Fa 0.97, 48 h treatment) was 861.173. For the same compound, the “FRAP ± SD” value ([1]; 10 µg/mL) was 120.30 ± 4.00 μmol Fe^2⁺ eq/g, the “FRAP ± SD” value ([1]; 20 µg/mL) was 200.15 ± 5.20 μmol Fe^2⁺ eq/g and the “FRAP ± SD” value ([1]; 40 µg/mL) was 350.45 ± 7.50 μmol Fe^2⁺ eq/g. The “FRAP ± SD” value ([1]; 80 µg/mL) was 600.55 ± 10.10 μmol Fe^2⁺ eq/g, the “FRAP ± SD” value ([1]; 100 µg/mL) was 800.45 ± 12.50 μmol Fe^2⁺ eq/g and the “CUPRAC ± SD” value ([2]; 10 µg/mL) was 115.25 ± 3.70 μmol Trolox eq/g. The “CUPRAC ± SD” value ([2]; 20 µg/mL) was 190.20 ± 5.00 μmol Trolox eq/g, the “CUPRAC ± SD” value ([2]; 40 µg/mL) was 340.30 ± 7.00 μmol Trolox eq/g and the “CUPRAC ± SD” value ([2]; 80 µg/mL) was 590.10 ± 9.50 μmol Trolox eq/g. For the same compound, the “CUPRAC ± SD” value ([2]; 100 µg/mL) was 780.55 ± 11.20 μmol Trolox eq/g, the “ABTS ± SD” value ([3]; 10 µg/mL) was 130.40 ± 4.50 μmol Trolox eq/g and the “ABTS ± SD” value ([3]; 20 µg/mL) was 210.10 ± 6.00 μmol Trolox eq/g. For the same compound, the “ABTS ± SD” value ([3]; 40 µg/mL) was 360.40 ± 8.00 μmol Trolox eq/g, the “ABTS ± SD” value ([3]; 80 µg/mL) was 620.20 ± 11.50 μmol Trolox eq/g and the “ABTS ± SD” value ([3]; 100 µg/mL) was 820.30 ± 14.00 μmol Trolox eq/g. The “concentration to which antiviral properties were limited” value (SARS-CoV-2) was 100 µg/mL and the “effect on SARS-CoV-2 viral titer” value (SARS-CoV-2) was “no noticeable change in viral titer”.

With `CCC(CC)COC(=O)[C@H](C)N[P@](=O)(OC[C@H]1O[C@@](C#N)(c2ccc3c(N)ncnn23)[C@H](O)[C@@H]1O)Oc1ccccc1` [RVD, Remdesivir, reference compound] the “decrease in SARS-CoV-2 viral titer” value (SARS-CoV-2) was 100%.
